The results in this text go back to patent US20080033007A1, “Substituted Tetrahydroisoquinoline Compounds for Cancer Therapy” (priority 2002, published 2008).

The test system of one series is C6 glioma. Briefly: in vivo rat model: C6 glioma cells injected into brain, treatment by osmotic mini pump. Particulars: rat hippocampus, 7 days treatment. From the text: Approximately 5×10^4 C6 glioma cells were transplanted into a rat brain via a cannula followed by treatment for seven days. Tumor cells are depicted by staining for beta galactosidase.
FIG. 2 is a graph depicting the maximum extent of tumor in a single section.
A rat model system was developed to examine the in vivo efficacy of the compounds of the present invention.
The first step was to produce a cell line with a marker gene. A rat C6 glioma cell line was selected and stably transfected with a β-galactosidase construct. These cells were cultured and prepared for injection into the brain of adult Sprague-Dawley rats to simulate in vivo tumor development.
The animals were anesthetized and a cannula was placed into the brain. Approximately 5×10^4 glioma cells were injected through the cannula. […] The mini osmotic pump delivered 1 μl/hr for 7 days. With the tubing used to connect the pump, there was approximately a 10 hour delay for the treatment to reach the brain.
The section with the largest extent of tumor visible in all of the cases was identified and the cross-sectional area of the tumor was measured.

Series [1] concerns MCF7, A549, HeLa, LnCap cancer cell lines. In words: anti-proliferative activity against cancer cell lines, 96 hr. It counts as cell-based. Particulars: every type of cancer tested: brain, breast, lung epithelial, cervical, prostate cancer cell lines. The procedure:
Cell proliferation was measured and EC50 values were estimated.

Series [2] is described as follows: animal toxicity test, delivery into striatum by mini-osmotic pump. Particulars: 5 μM into striatum, five days, Nissl stain; hydrochloride. It counts as in vivo, rat. The procedure:
The drug was delivered directly into the striatum of rats at a concentration of 5 μM, two times greater than the estimated EC50 value. […] The rats were sacrificed, brain sections were investigated for any major tissue change in the brain. Brains were fixed in 4% paraformaldehyde, cut in sections and stained by the Nissl method.
The drug was administered into the striatum of rats at 5 μM, which is approximately two times greater than the estimated EC5) value. […] The rats were sacrificed and brain sections were investigated for any major tissue change in the brain. Brains were fixed in 4% paraformaldehyde, cut in sections, and stained by the Nissl method.

In a further series the test system is C6 rat glioma. Briefly: differential culture cytotoxicity assay, C6 glioma. Particulars: comparison of IC50 values. The procedure: Normal cultured rat astrocytes and C6 rat glioma were used as a differential screen for a variety of 1,2,3,4-tetrahydroisoquinoline derivatives. […] To explore structure activity relationships (SAR) a number of 1,2,3,4-tetrahydroisoquinolines 2, 4, 5, 7, and 8 were synthesized and tested for antiglioma activity.
The astrocytes primary culture was derived from neonatal (4-8 days postpartum) rat pups as described by Geisert et al. The primary cultures were prepared as per McCarthy et al. Briefly, the rat pups were anesthetized on ice, decapitated, and the brains were removed. The cerebral cortex was removed, stripped of the meninges, and cut into small pieces of approximately 1 mm^2. The tissue was placed in 0.1% trypsin for 15 min and gently pipetted to produce a single cell suspension. The cell suspension was then rinsed in media and transferred to culture flasks. […]
The experimental treatment was the incubation of the cells with test compound for 96 h at 37° C., 5% CO2. The cells were fixed with 4% formaldehyde, stained with 0.1% cresylecth violet stain, and quantitated as per Wagner et a. […]
The cytotoxic character of each compound was reported as the percent survival, calculated as the average A560 for treated cells divided by A560 of untreated (negative control) cells, and expressed as a percentage. […]

For series [3], the system named is primary cultured cortical astrocytes. Briefly: effect on primary cultured cortical astrocytes (Example 5). Particulars: at EC50 concentrations for the C6 gliomas.

“Also recorded” adds a separate entry of the source.

As to `Cl.Oc1cc2c(cc1O)C(Cc1ccc(-c3ccccc3)cc1)NCC2` (racemic) [MMGS-155], the “pathology of normal brain tissue beneath treatment cannula” value in the series on C6 glioma is listed as “Limited pathology”. In addition, the “LD50, killing of cancer cells in culture” value in series [1] is listed as “approximately 3 μM”. Besides, in series [2], the “brain damage / tissue change” value is “did not show any sign of brain damage; also recorded: brain tissue appears normal”. In addition, the “cytotoxic activity relative to another compound” value with C6 rat glioma (listed as 1, hydrochloride) is “more potent; also recorded: at least two-fold higher potency”; in the series on C6 rat glioma (listed as 1-(biphenyl-4-ylmethyl)-1,2,3,4-tetrahydroisoquinoline-6,7-diol, hydrochloride), “increased relative potency”. Moreover, the destruction to astrocytes entry in series [3] was “only minimal destruction to astrocytes”.
